Structures can show the parent of a compound that is named as a salt. Where two headings read alike, the source gives them in different places.
Tests used:
[1] = system: fibrin-induced microglia activation; assay: Image-based assay of fibrin-induced microglia activation (HTS and dose response); type: cell-based, rat; settings: for IC50 / inhibition at 10 µM: Rattus norvegicus, Microglia; for inhibition at 10 µM: primary microglia HTS, fibrin stimulation, increased cell size (>800 μm^2) as marker of activation, read-out: Fibrin % inhibition
[2] = system: LPS-induced microglia activation; assay: Image-based assay of LPS-induced microglia activation (HTS and dose response); type: cell-based, rat; settings: Rattus norvegicus, Microglia; for inhibition at 10 µM: primary microglia HTS, LPS stimulation, increased cell size (>800 μm^2) as marker of activation, read-out: LPS % inhibition
[3] = system: primary rat microglia; assay: Cell toxicity (dead cells, size <150 μm2) in LPS assay; settings: for LPS % cell toxicity: primary microglia HTS, LPS stimulation, decreased size (<150 μm^2) as marker of toxicity; for IC50: read-out: Cell Toxicity IC50 (uM) [LPS assay], LPS assay
[4] = in vitro; settings: rat
[5] = in vitro; settings: rat, Cell Toxicity IC50 (uM) [cFib assay]
[6] = system: fibrin- and LPS-induced microglia activation; assay: cells; type: cell-based, rat; settings: for inhibition at 10 µM: Rattus norvegicus
[7] = system: primary rat microglia; assay: Cell toxicity (dead cells, size <150 μm2) in coated fibrin (cFib) assay; settings: primary microglia HTS, fibrin stimulation; decreased size (<150 μm^2) as marker of toxicity;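 on Fibrin % cell toxicity: share of dead cells sized under 150 µm2 at 10 µM in fibrin-stimulated microglia HTS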
[8] = 48 h, Table 1, dose response 0.001-20 μM, triplicates, primary rat microglia, 48 h, read-out: Fibrin IC50
[9] = Table 3, read-out: Fibrin IC50 (uM) (Suppl. Table 7)
[10] = dose response, fibrin-induced microglia activation, read-out: Fibrin IC50
[11] = fibrin-induced microglia activation, dose response, read-out: Fibrin IC50 (uM) (Suppl. Table 7)
[12] = 48 h, Table 1, dose response 0.001-20 μM, triplicates, primary rat microglia, 48 h, read-out: LPS IC50
[13] = LPS-induced microglia activation, dose response, read-out: LPS IC50 (uM) (Suppl. Table 7)
[14] = Table 3, read-out: LPS IC50 (uM) (Suppl. Table 7)
[15] = dose response, LPS-induced microglia activation, read-out: LPS IC50
[16] = HTS of 1907 compounds, quadrant by fibrin and LPS inhibition
[17] = Microglia, Table 3, read-out: Cherry-picked Hit (Suppl. Table 7)
[18] = Microglia, HTS hit classification, read-out: Hit
[19] = quadrant by fibrin and LPS inhibition in HTS of 1907 compounds
[20] = Table 6, read-out: Fibrin IC50 (uM) (Suppl. Table 7)
[21] = Table 6, read-out: LPS IC50 (uM) (Suppl. Table 7)

Row | Structure (SMILES) | Fibrin Selectivity [1] | Fibrin Selectivity (LOG10) [1] | IC50 [1, 8] | IC50 [1, 9] | IC50 [1, 10] | IC50 [1, 11] | inhibition at 10 µM [1] | IC50 [2, 12] | inhibition at 10 µM ([2]; 48 h) | IC50 [2, 13] | IC50 [2, 14] | IC50 [2, 15] | LPS % cell toxicity [3] | IC50 [4] | IC50 ([5]; cFib assay) | Quadrant (FIG. 5b) [6, 16] | inhibition at 10 µM [6, 18] | Quadrant (FIG. 5b) ([6]; Table 1, screen at 10 μM) | Quadrant (FIG. 5b) [6, 19] | Fibrin % cell toxicity [7] | further results
1 | CN(C)[C@@H]1C(O)=C(C(N)=O)C(=O)[C@@]2(O)C(O)=C3C(=O)c4c(O)ccc(Cl)c4[C@@H](O)[C@H]3C[C@@H]12 [Demeclocycline hydrochloride, reference compound] | 2 | 0.38 | 6 µM | 6 µM | 6 µM | 6 µM | 75% | 15 µM | 31% | 15 µM | 15 µM | 15 µM | 1% | > 20 µM | > 20 µM | Q3 | > 50% | Q3 | Q3 | 1% | IC50 [3]: > 20 µM; IC50 ([5]; Table 3): > 20 µM; inhibition at 10 µM [6, 17]: > 50%; Quadrant (FIG. 5b) ([6]; Table 3, screen at 10 μM): Q3
2 | CC(=O)OCC(=O)[C@H]1CC[C@H]2[C@@H]3CCC4=CC(=O)CC[C@]4(C)[C@H]3CC[C@]12C [Desoxycorticosterone acetate, reference compound] | 10 | 0.98 | 0.5 µM | 0.5 µM | 0.5 µM | 0.5 µM | 83% | 5 µM | 47% | 5 µM | 5 µM | 5 µM | 1% | > 20 µM | > 20 µM | Q3 | > 50% | Q3 | Q3 | 1% | IC50 [3]: > 20 µM; IC50 ([5]; Table 3): > 20 µM; inhibition at 10 µM [6, 17]: > 50%; Quadrant (FIG. 5b) ([6]; Table 3, screen at 10 μM): Q3
3 | CC(=O)OCC(=O)[C@@]1(O)CC[C@H]2[C@@H]3CCC4=CC(=O)C=C[C@]4(C)[C@@]3(Cl)[C@@H](Cl)C[C@@]21C [Dichlorisone acetate, reference compound] | 169 | 2.23 | 0.03 µM | 0.03 µM | 0.03 µM | 0.03 µM | 108% | 4 µM | 74% | 4 µM | 4 µM | 4 µM | 1% | > 20 µM | > 20 µM | Q2 | > 50% | Q2 | Q2 | 3% | IC50 [1, 20]: 0.03 µM; IC50 [2, 21]: 4 µM; IC50 [3]: > 20 µM; IC50 ([3]; Table 6): > 20 µM; IC50 ([5]; Table 3): > 20 µM; IC50 ([5]; cFib assay, Table 6): > 20 µM; inhibition at 10 µM [6, 17]: > 50%; Quadrant (FIG. 5b) ([6]; Table 3, screen at 10 μM): Q2; Quadrant (FIG. 5b) ([6]; microglia HTS, Table 6): Q2
4 | COC(=O)Nc1nc2ccc(Sc3ccccc3)cc2[nH]1 [Fenbendazole, reference compound] |  |  | 3 µM |  | 3 µM | 3 µM | 75% | 4 µM | 10% | 4 µM |  | 4 µM | 1% | > 20 µM | > 20 µM | Q3 | > 50% | Q3 | Q3 | 1% | inhibition at 10 µM ([6]; hit classification in microglia HTS, read-out: Cherry-picked Hit (Suppl. Table 7)): > 50%
5 | CC(=O)OCC(=O)[C@@]1(O)CC[C@H]2[C@@H]3CCC4=CC(=O)CC[C@]4(C)[C@@]3(F)[C@@H](O)C[C@@]21C [Fludrocortisone acetate, reference compound] | 362 | 2.56 | < 0.001 µM | < 0.001 µM | < 0.001 µM | < 0.001 µM | 104% | 0.4 µM | 101% | 0.4 µM | 0.4 µM | 0.4 µM | 4% | > 20 µM | > 20 µM | Q2 | > 50% | Q2 | Q2 | 2% | IC50 [1, 20]: < 0.001 µM; IC50 ([1]; Table 7, read-out: fib_IC50): 0.002 µM; IC50 [2, 21]: 0.4 µM; IC50 ([2]; Table 7, read-out: LPS_IC50): 0.002 µM; IC50 [3]: > 20 µM; IC50 ([3]; Table 6): > 20 µM; IC50 ([5]; Table 3): > 20 µM; IC50 ([5]; cFib assay, Table 6): > 20 µM; inhibition at 10 µM [6, 17]: > 50%; Quadrant (FIG. 5b) ([6]; Table 2, screen at 10 μM): Q2; Quadrant (FIG. 5b) ([6]; Table 3, screen at 10 μM): Q2; Activity ([6]; Table 7, fib = fibrin, LPS, tox = toxicity): fib/LPS; Quadrant (FIG. 5b) ([6]; microglia HTS, Table 6): Q2

Source: patent US20210330611A1, “THERAPY FOR NEUROLOGICAL DISEASES/DISORDERS” (priority 2020, published 2021)
